From PMC6739136 (Neuropeptides, 2019) come the findings set out here.

The subject of the assay is urinary bladder pressure, anesthetized minipigs. The assay is described as follows: Cystometry. Format: in vivo, minipig (Gottingen, Sinclair). The settings on record: GR 159897 1 mg/kg IV, 15 min prior to LMN-NKA, N=2, anesthetized minipigs, DT-063.

With `COC1(C[S@@+]([O-])c2ccccc2)CCN(CCc2c[nH]c3ccc(F)cc23)CC1` [GR 159897, 5-Fluoro-3-[2-[4-methoxy-4-[[(R)-phenylsulphinyl]methyl]-1-piperidinyl]ethyl]-1H-indole], the “effect on increase in bladder pressure induced by 100 μg/kg SC of LMN-NKA” value was “blocked”.
